Data set [1] can be described thus: Partition Coefficient Studies (water solubility, heptane solubility, water/heptane partition).
The nature of data set [2]: Stability of the 7-hydroxymethyl derivative in water. The class given is physicochemical.
In the next data set the test system is phosphodiesterase. The conditions noted are these: Sutherland and Rall 1958; cited from earlier work.
For data set [3] the following is noted: e.g., heptane; cited from earlier work.
[4] abbreviates: heptane, organic solvent or mixture.

The solubility is the dissolved amount per volume that the medium holds.

Molecules are shown by their SMILES. Converted amounts (≈) assume the structure as drawn.

For the compound `CN(C)CC(=O)OCn1cnc2c1c(=O)n(C)c(=O)n2C`, in data set [1] (heptane), the “Heptane (solubility)” value is recorded as < 10 mg/500 ml. Besides, in data set [1] (water), the solubility was > 1000 mg/mL.

On to `CCN(CC)C(=O)CCC(=O)OCn1cnc2c1c(=O)n(C)c(=O)n2C`, for which the values for the solubility in data set [1] (setting [4]) and in data set [1] (water) were 0.17 mg/mL (≈ 0.465 mM) and 26.3 mg/mL (≈ 72 mM), respectively.

Regarding `Cn1c(=O)c2c(ncn2CO)n(C)c1=O` [7-hydroxymethyl derivative, 7-hydroxymethyl theophylline], the stability in water result in data set [2] is “extremely unstable in water”.

For `CCC(=O)OCn1cnc2c1c(=O)n(C)c(=O)n2C` [C2 H5, 7-Propionyloxymethyl-theophylline], the solubility in data set [1] (setting [4]) was determined as 0.18 mg/mL (≈ 0.676 mM); in data set [1] (water) it was 3.87 mg/mL (≈ 14.5 mM). The compound further showed a Water/Heptane partition coefficient in data set [1] of 32.0.

Turning to `CCCC(=O)OCn1cnc2c1c(=O)n(C)c(=O)n2C` [C3 H7, 7-Butanoyloxymethyl-theophylline], the solubility came to 0.65 mg/mL (≈ 2.32 mM) in data set [1] (setting [4]) and 3.89 mg/mL (≈ 13.9 mM) in data set [1] (water). In data set [1], this compound displayed a Water/Heptane partition coefficient of 6.30.

Regarding `CCCCCC(=O)OCn1cnc2c1c(=O)n(C)c(=O)n2C` [C5 H11, 7-Hexanoyloxymethyl-theophylline], the solubility in data set [1] (setting [4]) is 2.26 mg/mL (≈ 7.33 mM); in data set [1] (water) it was 0.11 mg/mL (≈ 0.357 mM). In data set [1], this compound showed a Water/Heptane partition coefficient of 0.42.

In the case of `CCCCCCCC(=O)OCn1cnc2c1c(=O)n(C)c(=O)n2C` [C7 H15, 7-Octanoyloxymethyl-theophylline], the results for the solubility in data set [1] (setting [4]) and in data set [1] (water) were 0.52 mg/mL (≈ 1.55 mM) and 0.12 mg/mL (≈ 0.357 mM), respectively. Besides, the Water/Heptane partition coefficient in data set [1] turned out to be 0.06.

For `Cn1c(=O)c2c(ncn2COC(=O)C(C)(C)C)n(C)c1=O` [C(CH3)3, 7-Pivalyloxymethyl-theophylline], the solubility in data set [1] (setting [4]) was determined as 1.55 mg/mL (≈ 5.27 mM); in data set [1] (water), 2.01 mg/mL (≈ 6.83 mM). Also, the Water/Heptane partition coefficient in data set [1] is 1.11.

For `Cn1c(=O)c2[nH]cnc2n(C)c1=O` [theophylline], the “effect on degradation of cyclic AMP by inhibiting phosphodiesterase activity” value in the data set on phosphodiesterase is reported as “decrease the degradation of cyclic AMP by inhibiting phosphodiesterase activity”. In addition, the “solubility in lipid-like solvents” value in data set [3] is recorded as “almost insoluble”.

The record behind these values is patent publication US4061753A, “Treating psoriasis with transient pro-drug forms of xanthine derivatives” (INTERx Research Corporation, priority 1976, dated 1977).
